Measured values taken from ChEMBL document CHEMBL1158853, “Laurencia rigida: chemical investigations of its antifouling dichloromethane extract” (J Nat Prod, 1997).
Where a name gives a salt, the structure may show the parent alone. Calls of active or inactive are those of the source. The rule behind the calls is not given here.

Columns and labels:
Escherichia coli [1] = experiment: Antibacterial activity against Escherichia coli at 25 ug by agar diffusion assay; assay type: functional; conditions: read-out: IZ
Priestia megaterium [2] = experiment: Antibacterial activity against Bacillus megaterium at 25 ug by agar diffusion assay; assay type: functional; conditions: read-out: IZ
Amphibalanus amphitrite = experiment: Toxicity in Balanus amphitrite nauplii larvae assessed as survival rate; assay type: organism-based; conditions: in vivo
Fusarium oxysporum [3] = experiment: Antifungal activity against Fusarium oxysporum at 25 ug by agar diffusion assay; assay type: functional; conditions: read-out: IZ
Microbotryum violaceum [4] = experiment: Antifungal activity against Ustilago violacea at 25 ug by agar diffusion assay; assay type: functional; conditions: read-out: IZ
Mycotypha microspora [5] = experiment: Antifungal activity against Mycotypha microspora at 25 ug by agar diffusion assay; assay type: functional; conditions: read-out: IZ
[6] = system: Aspergillus pseudoglaucus; experiment: Antifungal activity Eurotium repens at 25 ug by agar diffusion assay; assay type: functional; conditions: read-out: IZ
[Chlorella] fusca [7] = Antialgal activity against Chlorella fusca at 25 ug by agar diffusion assay; assay type: functional; conditions: Scenedesmus fuscus; read-out: IZ
[8] = system: Aspergillus pseudoglaucus; experiment: Antifungal activity Eurotium repens at 34 ug by agar diffusion assay; assay type: functional; conditions: read-out: IZ
Mycotypha microspora [9] = experiment: Antifungal activity against Mycotypha microspora at 34 ug by agar diffusion assay; assay type: functional; conditions: read-out: IZ
[Chlorella] fusca [10] = Antialgal activity against Chlorella fusca at 34 ug by agar diffusion assay; assay type: functional; conditions: Scenedesmus fuscus; read-out: IZ
Fusarium oxysporum [11] = experiment: Antifungal activity against Fusarium oxysporum at 34 ug by agar diffusion assay; assay type: functional; conditions: read-out: IZ
Priestia megaterium [12] = experiment: Antibacterial activity against Bacillus megaterium at 34 ug by agar diffusion assay; assay type: functional; conditions: read-out: IZ
Microbotryum violaceum [13] = experiment: Antifungal activity against Ustilago violacea at 34 ug by agar diffusion assay; assay type: functional; conditions: read-out: IZ
Escherichia coli [14] = experiment: Antibacterial activity against Escherichia coli at 34 ug by agar diffusion assay; assay type: functional; conditions: read-out: IZ
Priestia megaterium [15] = experiment: Antibacterial activity against Bacillus megaterium at 65 ug by agar diffusion assay; assay type: functional; conditions: read-out: IZ
Escherichia coli [16] = experiment: Antibacterial activity against Escherichia coli at 65 ug by agar diffusion assay; assay type: functional; conditions: read-out: IZ
Priestia megaterium [17] = experiment: Antibacterial activity against Bacillus megaterium at 50 ug by agar diffusion assay; assay type: functional, organism-based
[Chlorella] fusca [18] = Antialgal activity against Chlorella fusca at 50 ug by agar diffusion assay; assay type: functional, organism-based; conditions: Scenedesmus fuscus
Escherichia coli [19] = experiment: Antibacterial activity against Escherichia coli at 50 ug by agar diffusion assay; assay type: functional, organism-based
Fusarium oxysporum [20] = experiment: Antifungal activity against Fusarium oxysporum at 40 ug by agar diffusion assay; assay type: functional; conditions: read-out: IZ
Mycotypha microspora [21] = experiment: Antifungal activity against Mycotypha microspora at 40 ug by agar diffusion assay; assay type: functional; conditions: read-out: IZ
[Chlorella] fusca [22] = Antialgal activity against Chlorella fusca at 40 ug by agar diffusion assay; assay type: functional; conditions: Scenedesmus fuscus; read-out: IZ
Microbotryum violaceum [23] = experiment: Antifungal activity against Ustilago violacea at 40 ug by agar diffusion assay; assay type: functional; conditions: read-out: IZ
Priestia megaterium [24] = experiment: Antibacterial activity against Bacillus megaterium at 40 ug by agar diffusion assay; assay type: functional; conditions: read-out: IZ
Escherichia coli [25] = experiment: Antibacterial activity against Escherichia coli at 40 ug by agar diffusion assay; assay type: functional; conditions: read-out: IZ
[26] = system: Aspergillus pseudoglaucus; experiment: Antifungal activity Eurotium repens at 40 ug by agar diffusion assay; assay type: functional; conditions: read-out: IZ
Escherichia coli [27] = experiment: Antibacterial activity against Escherichia coli at 45 ug by agar diffusion assay; assay type: functional; conditions: read-out: IZ
[Chlorella] fusca [28] = Antialgal activity against Chlorella fusca at 45 ug by agar diffusion assay; assay type: functional; conditions: Scenedesmus fuscus; read-out: IZ
[29] = system: Aspergillus pseudoglaucus; experiment: Antifungal activity Eurotium repens at 45 ug by agar diffusion assay; assay type: functional; conditions: read-out: IZ
Fusarium oxysporum [30] = experiment: Antifungal activity against Fusarium oxysporum at 45 ug by agar diffusion assay; assay type: functional; conditions: read-out: IZ
Mycotypha microspora [31] = experiment: Antifungal activity against Mycotypha microspora at 45 ug by agar diffusion assay; assay type: functional; conditions: read-out: IZ
Priestia megaterium [32] = experiment: Antibacterial activity against Bacillus megaterium at 45 ug by agar diffusion assay; assay type: functional; conditions: read-out: IZ
Microbotryum violaceum [33] = experiment: Antifungal activity against Ustilago violacea at 45 ug by agar diffusion assay; assay type: functional; conditions: read-out: IZ
Microbotryum violaceum [34] = experiment: Antifungal activity against Ustilago violacea at 60 ug by agar diffusion assay; assay type: functional, organism-based
[35] = system: Aspergillus pseudoglaucus; experiment: Antifungal activity Eurotium repens at 60 ug by agar diffusion assay; assay type: functional; conditions: read-out: IZ
Mycotypha microspora [36] = experiment: Antifungal activity against Mycotypha microspora at 60 ug by agar diffusion assay; assay type: functional; conditions: read-out: IZ
Fusarium oxysporum [37] = experiment: Antifungal activity against Fusarium oxysporum at 60 ug by agar diffusion assay; assay type: functional; conditions: read-out: IZ
Mycotypha microspora [38] = experiment: Antifungal activity against Mycotypha microspora at 33 ug by agar diffusion assay; assay type: functional; conditions: read-out: IZ
[Chlorella] fusca [39] = Antialgal activity against Chlorella fusca at 33 ug by agar diffusion assay; assay type: functional; conditions: Scenedesmus fuscus; read-out: IZ
Microbotryum violaceum [40] = experiment: Antifungal activity against Ustilago violacea at 33 ug by agar diffusion assay; assay type: functional; conditions: read-out: IZ
Fusarium oxysporum [41] = experiment: Antifungal activity against Fusarium oxysporum at 33 ug by agar diffusion assay; assay type: functional; conditions: read-out: IZ
[42] = system: Aspergillus pseudoglaucus; experiment: Antifungal activity Eurotium repens at 33 ug by agar diffusion assay; assay type: functional; conditions: read-out: IZ
Priestia megaterium [43] = experiment: Antibacterial activity against Bacillus megaterium at 33 ug by agar diffusion assay; assay type: functional; conditions: read-out: IZ
Escherichia coli [44] = experiment: Antibacterial activity against Escherichia coli at 33 ug by agar diffusion assay; assay type: functional; conditions: read-out: IZ
[45] = system: Aspergillus pseudoglaucus; experiment: Antifungal activity Eurotium repens at 135 ug by agar diffusion assay; assay type: functional; conditions: read-out: IZ
Priestia megaterium [46] = experiment: Antibacterial activity against Bacillus megaterium at 135 ug by agar diffusion assay; assay type: functional; conditions: read-out: IZ
Fusarium oxysporum [47] = experiment: Antifungal activity against Fusarium oxysporum at 135 ug by agar diffusion assay; assay type: functional; conditions: read-out: IZ
Escherichia coli [48] = experiment: Antibacterial activity against Escherichia coli at 135 ug by agar diffusion assay; assay type: functional; conditions: read-out: IZ
Microbotryum violaceum [49] = experiment: Antifungal activity against Ustilago violacea at 135 ug by agar diffusion assay; assay type: functional; conditions: read-out: IZ
[Chlorella] fusca [50] = Antialgal activity against Chlorella fusca at 135 ug by agar diffusion assay; assay type: functional; conditions: Scenedesmus fuscus; read-out: IZ
Mycotypha microspora [51] = experiment: Antifungal activity against Mycotypha microspora at 135 ug by agar diffusion assay; assay type: functional; conditions: read-out: IZ
Mycotypha microspora [52] = experiment: Antifungal activity against Mycotypha microspora at 50 ug by agar diffusion assay; conditions: read-out: IZ
Fusarium oxysporum [53] = experiment: Antifungal activity against Fusarium oxysporum at 50 ug by agar diffusion assay; conditions: read-out: IZ
[54] = system: Aspergillus pseudoglaucus; experiment: Antifungal activity Eurotium repens at 50 ug by agar diffusion assay; conditions: read-out: IZ
Escherichia coli [55] = experiment: Antibacterial activity against Escherichia coli at 85 ug by agar diffusion assay; assay type: functional; conditions: read-out: IZ
Priestia megaterium [56] = experiment: Antibacterial activity against Bacillus megaterium at 85 ug by agar diffusion assay; assay type: functional; conditions: read-out: IZ

C=C1C[C@H](O)[C@H](Br)C(C)(C)[C@]12CC=C(C)CC2 [DESCHLOROELATOL]
zone of inhibition at 25 µg/disc (Escherichia coli [1]): 0 mm | zone of inhibition at 25 µg/disc (Priestia megaterium [2]): 1 mm | Activity (Amphibalanus amphitrite): Toxic | zone of inhibition at 25 µg/disc (Fusarium oxysporum [3]): 0 mm | zone of inhibition at 25 µg/disc (Microbotryum violaceum [4]): 0 mm | zone of inhibition at 25 µg/disc (Mycotypha microspora [5]): 20 mm | zone of inhibition at 25 µg/disc [6]: 18 mm | zone of inhibition at 25 µg/disc ([Chlorella] fusca [7]): 2 mm

CC(=O)OC(C=C(C)C)C/C(C)=C1/CC=C(C)CC1 (stereo unspecified)
zone of inhibition at 34 µg/disc [8]: 0 mm | zone of inhibition at 34 µg/disc (Mycotypha microspora [9]): 0 mm | zone of inhibition at 34 µg/disc ([Chlorella] fusca [10]): 3 mm | zone of inhibition at 34 µg/disc (Fusarium oxysporum [11]): 0 mm | zone of inhibition at 34 µg/disc (Priestia megaterium [12]): 0 mm | zone of inhibition at 34 µg/disc (Microbotryum violaceum [13]): 0 mm | zone of inhibition at 34 µg/disc (Escherichia coli [14]): 0 mm

CN[C@@H]1[C@H](O[C@H]2[C@H](O[C@H]3[C@H](O)[C@@H](O)[C@H](N=C(N)N)[C@@H](O)[C@@H]3N=C(N)N)O[C@@H](C)[C@]2(O)C=O)O[C@@H](CO)[C@H](O)[C@H]1O [STREPTOMYCIN SULFATE]
zone of inhibition at 65 µg/disc (Priestia megaterium [15]): 5 mm | zone of inhibition at 65 µg/disc (Escherichia coli [16]): 3 mm

C=C1CC[C@H](Br)C(C)(C)[C@]12CC=C(C)CC2
Activity (Priestia megaterium [17]): inactive | Activity ([Chlorella] fusca [18]): inactive | Activity (Escherichia coli [19]): inactive

C[C@@H]1CCC23[C@H]1CC[C@@]2(C)C[C@H](C)[C@]3(C)O (stereo partly specified)
zone of inhibition at 40 µg/disc (Fusarium oxysporum [20]): 0 mm | zone of inhibition at 40 µg/disc (Mycotypha microspora [21]): 0 mm | zone of inhibition at 40 µg/disc ([Chlorella] fusca [22]): 2 mm | zone of inhibition at 40 µg/disc (Microbotryum violaceum [23]): 0 mm | zone of inhibition at 40 µg/disc (Priestia megaterium [24]): 0 mm | zone of inhibition at 40 µg/disc (Escherichia coli [25]): 0 mm | zone of inhibition at 40 µg/disc [26]: 0 mm

C=C1C[C@H](O)[C@H](Br)C(C)(C)[C@]12C=C[C@@](C)(O)CC2 [RIGIDOL]
zone of inhibition at 45 µg/disc (Escherichia coli [27]): 0 mm | zone of inhibition at 45 µg/disc ([Chlorella] fusca [28]): 0 mm | zone of inhibition at 45 µg/disc [29]: 0 mm | zone of inhibition at 45 µg/disc (Fusarium oxysporum [30]): 0 mm | zone of inhibition at 45 µg/disc (Mycotypha microspora [31]): 4 mm | zone of inhibition at 45 µg/disc (Priestia megaterium [32]): 0 mm | zone of inhibition at 45 µg/disc (Microbotryum violaceum [33]): 5 mm

C[C@@H]1C[C@@H]([C@H](O)CC2CC(=O)NC(=O)C2)C(=O)[C@@H](C)C1 [CYCLOHEXIMIDE]
Activity (Microbotryum violaceum [34]): Active | zone of inhibition at 60 µg/disc [35]: 5 mm | zone of inhibition at 60 µg/disc (Mycotypha microspora [36]): 4 mm | zone of inhibition at 60 µg/disc (Fusarium oxysporum [37]): 3 mm

CC1=CC[C@]2(CC1)C(C)=C[C@@H](O)[C@H](Br)C2(C)C
zone of inhibition at 33 µg/disc (Mycotypha microspora [38]): 3 mm | zone of inhibition at 33 µg/disc ([Chlorella] fusca [39]): 3 mm | zone of inhibition at 33 µg/disc (Microbotryum violaceum [40]): 0 mm | zone of inhibition at 33 µg/disc (Fusarium oxysporum [41]): 0 mm | zone of inhibition at 33 µg/disc [42]: 0 mm | zone of inhibition at 33 µg/disc (Priestia megaterium [43]): 0 mm | zone of inhibition at 33 µg/disc (Escherichia coli [44]): 0 mm

C=C1C[C@H](O)[C@H](Br)C(C)(C)[C@@]12CCC(C)=C(Cl)C2 [ELATOL]
Activity (Amphibalanus amphitrite): Toxic | zone of inhibition at 135 µg/disc [45]: 25 mm | zone of inhibition at 135 µg/disc (Priestia megaterium [46]): 2 mm | zone of inhibition at 135 µg/disc (Fusarium oxysporum [47]): 7 mm | zone of inhibition at 135 µg/disc (Escherichia coli [48]): 0 mm | zone of inhibition at 135 µg/disc (Microbotryum violaceum [49]): 3 mm | zone of inhibition at 135 µg/disc ([Chlorella] fusca [50]): 0 mm | zone of inhibition at 135 µg/disc (Mycotypha microspora [51]): 25 mm

CC1=CC[C@@]2(CC1)C(C)=CC[C@@H](Br)C2(C)C
Activity (Priestia megaterium [17]): inactive | Activity ([Chlorella] fusca [18]): inactive | Activity (Escherichia coli [19]): inactive

Clc1ccc(COC(Cn2ccnc2)c2ccc(Cl)cc2Cl)c(Cl)c1 (stereo unspecified) [MICONAZOLE NITRATE]
zone of inhibition at 50 µg/disc (Mycotypha microspora [52]): 7 mm | zone of inhibition at 50 µg/disc (Fusarium oxysporum [53]): 1 mm | zone of inhibition at 50 µg/disc [54]: 18 mm

CC1(C)S[C@@H]2[C@H](NC(=O)Cc3ccccc3)C(=O)N2[C@H]1C(=O)O [PENICILLIN G POTASSIUM]
zone of inhibition at 85 µg/disc (Escherichia coli [55]): 0 mm | zone of inhibition at 85 µg/disc (Priestia megaterium [56]): 20 mm
